Values of other authors, collected in PMC7464078, “CYP3A Excipient-Based Microemulsion Prolongs the Effect of Magnolol on Ischemia Stroke Rats” (Pharmaceutics, 2020).
Read-outs that look alike come from different tables or passages of the source. Values belong to the molecule of their own block, whether it stands above or below them.

Legend:
[1] = set-up: method as in PMID 21638244
[2] = system: rat CYP3A
[3] = system: human CYP3A4
[4] = system: rat CYP1A2
[5] = system: rat CYP2E1
[6] = system: CYP3A; set-up: method as in PMID 14716751, PMID 11137342; details: hepatocytes and liver microsomes

Molecule: C=CCc1ccc(O)c(-c2cc(CC=C)ccc2O)c1 [Magnolol, 5,5′-diallyi-2,2′-dihydroxybiphenyl]
Bioavailability [1]: 4% | Water solubility (at 25 °C): 1.24 µg/mL | Solubility in dimethyl sulfoxide (ref Item No. 14233, Cyman Chemical): approximately 16 mg/mL | Inhibition of rat CYP3A ([2]; in vitro): weak inhibitors | Inhibition of human CYP3A4 ([3]; in vitro): weak inhibitors | Inhibition of rat CYP1A2 ([4]; in vitro): relatively strong inhibitors | Inhibition of rat CYP2E1 ([5]; in vitro): relatively strong inhibitors

Inhibition of rat CYP3A [2]: weak inhibitors | Inhibition of human CYP3A4 [3]: weak inhibitors | Inhibition of rat CYP1A2 [4]: relatively strong inhibitors | Inhibition of rat CYP2E1 [5]: relatively strong inhibitors
Molecule: C=CCc1ccc(O)c(-c2ccc(O)c(CC=C)c2)c1 [honokiol]

Effect on CYP3A activity [6]: inhibited
Molecule: Tween-80
